Reference: patent US7598400B2, “AMPO spin traps” (The Ohio State University Research Foundation, priority 2004, dated 2009)
Where two headings read alike, the source gives them in different places.

Key:
[1] = pH 7.2 and 23° C.; literature reference; cited from earlier work
[2] = Partition coefficient n-octanol/water (buffer); format: physicochemical; conditions: for Kp (n-octanol/water): pH 7.2, shaken for 2 hrs at 37° C.
[3] = Decay kinetics of nitrone-superoxide adducts (EPR, riboflavin-light system); format: physicochemical; conditions: pH 7.2 and 23° C.; this work
Method: Decay Kinetics In a typical decay kinetic study, 50 μL solution containing 25 mM of the nitrone and 100 μM riboflavin was irradiated for 3 min in the cavity. […] All data were the average of 3 or more measurements.

[4] = value of the competitor DEPMPO used as basis of the calculation; cited from earlier work
[5] = Spin trapping of radicals detected by EPR spectroscopy; conditions: hydroxyl, superoxide, C-centered, sulfite, and tert-butoxyl radicals
Method: Miscellaneous Spin Trapping Studies Fenton reaction system. A 50 μL 0.1 M phosphate buffer solution containing 30 mM AMPO, 1% H2O2 and 65 mM FeSO4 was transferred to a 50 μL capillary tube and EPR spectrum of the hydroxyl adduct was recorded over 5 min time period.
Trapping of SO3^•−, CO2^•− and CH3.CHOH radicals. 50 μL 0.1 M phosphate buffer solution containing 30 mM AMPO, 1% H2O2 and 100 mM of the respective radical source NaHCO2, Na2SO3, or ethanol with 65 mM freshly prepared FeSO4. The mixture was then transferred to 50 μL capillary tube and EPR spectrum of the adduct was recorded over a 5 min time period.
Trapping of GS. and t-BuO. radicals. 50 μL 0.1 M phosphate buffer solution containing 30 mM AMPO and 100 mM GSSG or (CH3)3CO—OC(CH3)3. The mixture was then transferred to 50 μL capillary tube and the radicals were generated by UV photolysis. EPR spectrum of the adduct was recorded over a 5 min time period.
(§1) Trapping of O2^•−. Typical O2^•− trapping experiments utilized the riboflavin-light system as described in the Kinetics section. An alternative O2^•− generating system used a solution of 0.4 mM xanthine and 0.5 unit/mL xanthine oxidase, or 10 nM PMA and 8×10^5 neutrophil cells in 25 mM AMPO. Spectra were acquired over a period of 15 min.

[6] = Rate of superoxide radical trapping by competitive trapping versus DEPMPO (EPR); conditions: based on kDEPMPO=58 M^−1 s^−1
Method: The nitrone 5-carbamoyl-5-methyl-1-pyrroline N-oxide (AMPO) was successfully synthesized and characterized. […] Resulting spin adducts for each of these radicals gave unique spectral profiles. […] Theoretical analyses using density functional theory calculations at the B3LYP/6-31=G**/B3LYP6-31G* level were performed on AMPO and its corresponding suproxide product. Calculations predicted the presence of intramolecular H-bonding in both AMPO and its superoxide adduct, and these interactions were further confirmed by an X-ray structure (in the case of AMPO) of a novel and the amido nitrone compound 2-amino-5-carbamoyl-5-methyl-1-pyrroline N-oxide (NH2-AMPO).
as §1

SMILES | kl /10^−4s^−1 (first order decay of nitrone-superoxide adduct) [1] | t1/2/min, first order approximation half-life of nitrone-superoxide adduct [1] [min] | Kp (n-octanol/water) [2] | kl /10^−4s^−1 (first order decay of nitrone-superoxide adduct) [3] | Rate of superoxide radical trapping (k), reference value [4] [M⁻¹ s⁻¹] | partition coefficient in an n-octanol/buffer system (comparison in words) ([2]; n-octanol/buffer system) | Spin trapping of radicals by EPR [5] | Rate of superoxide radical trapping (k) [6] [M⁻¹ s⁻¹]
CCOP(=O)(OCC)C1(C)CCC=[N+]1[O-] (stereo not shown) [DEPMPO, 5-diethoxyphosphoryl-5-methyl-1-pyrroline N-oxide] | 8.13 10^−4s^−1 | 14.2 | 0.16 | 7.5 ± 0.7 10^−4s^−1 | 58 |  |  | 
CC1(C(N)=O)CCC=[N+]1[O-] (stereo not shown) [AMPO, 5-carbamoyl-5-methyl-1-pyrroline N-oxide] |  |  | 0.03 | 14.0 ± 1.2 10^−4s^−1 |  | comparable value to those of DMPO and DEPMPO | has been demonstrated | 38
CCOC(=O)C1(C)CCC=[N+]1[O-] (stereo not shown) [EMPO, 5-ethoxycarbonyl-5-methyl-1-pyrroline N-oxide] |  |  | 0.33 | 11.6 ± 0.5 10^−4s^−1 |  |  |  | 44
CC1(C)CCC=[N+]1[O-] [DMPO] | 129.0 10^−4s^−1 | 0.9 | 0.06 |  |  |  |  | 
